Results reported in patent publication US20170022258A1, “PEPTIDES FOR USE IN THE TREATMENT OF IL-1 RELATED DISEASES AND CONDITIONS” (C4M PHARMACEUTICALS PTY LTD., priority 2011, published 2017).
Non-standard residues stand in square brackets, D forms with d. Residues, ends and D or L forms follow the SMILES beside them.

Tested on: IL-1 stimulation of IL-8 in human skin fibroblasts
Assay: Inhibition of IL-1 induced IL-8 in human fibroblasts
Format: cell-based
Details: inhibition of IL-1 stimulation of IL-8 in human skin fibroblasts; average of three measurements and standard error; read-out: Binding (IC50 nM)

In the case of `CC(=O)N[C@H](CC(C)C)C(=O)N1CCC[C@@H]1C(=O)N[C@H](CC(C)C)C(=O)N[C@H](C)C(=O)N[C@H](Cc1ccc(O)cc1)C(=O)N1CCC[C@@H]1C(=O)N[C@H](CCC(N)=O)C(=O)N[C@H](Cc1c[nH]c2ccccc12)C(=O)N[C@H](Cc1ccc(O)cc1)C(=O)NCC(=O)N1CCC[C@@H]1C(=O)N[C@@H](C(=O)N[C@H](Cc1c[nH]c2ccccc12)C(=O)N[C@H](CCC(=O)O)C(=O)N[C@H](Cc1ccccc1)C(=O)O)[C@H](C)O` [SEQ ID NO. 4, Ac-LPLAYPQWYGPTWEF] (Ac-[dL][dP][dL][dA][dY][dP][dQ][dW][dY]G[dP][dT][dW][dE][dF]-OH; C-terminus assumed), the IC50 is reported as 5.9 nM.
